Results taken from the OligoGym collection.
Oligonucleotides are given in HELM: sugar(base)linkage, 5' to 3'; d 2'-deoxyribose, r ribose, m 2'-O-methylribose, p phosphate. ss, as = sense and antisense strand

Biological target: SOST
Assay: reporter assay of Huesken 2005
Conditions: siRNA
Further: test concentration or dose not given here.

Question: Which normalised inhibition (eCFP-eYFP dual reporter) does the source give for “RNA1{r(C)p.r(A)p.r(G)p.r(C)p.r(G)p.r(C)p.r(C)p.r(A)p.r(A)p.r(G)p.r(C)p.r(C)p.r(G)p.r(G)p.r(U)p.r(C)p.r(A)p.r(C)p.r(C)p.d(T)p.d(T)}|RNA2{r(G)p.r(G)p.r(U)p.r(G)p.r(A)p.r(C)p.r(C)p.r(G)p.r(G)p.r(C)p.r(U)p.r(U)p.r(G)p.r(G)p.r(C)p.r(G)p.r(C)p.r(U)p.r(G)p.d(C)p.d(G)}$$$RNA1{StrandType:ss}|RNA2{StrandType:as}$” here?
Answer: 50.5%

Question: “RNA1{r(C)p.r(A)p.r(G)p.r(G)p.r(C)p.r(G)p.r(U)p.r(U)p.r(C)p.r(A)p.r(A)p.r(G)p.r(A)p.r(A)p.r(U)p.r(G)p.r(A)p.r(U)p.r(G)p.d(T)p.d(T)}|RNA2{r(C)p.r(A)p.r(U)p.r(C)p.r(A)p.r(U)p.r(U)p.r(C)p.r(U)p.r(U)p.r(G)p.r(A)p.r(A)p.r(C)p.r(G)p.r(C)p.r(C)p.r(U)p.r(G)p.d(C)p.d(C)}$$$RNA1{StrandType:ss}|RNA2{StrandType:as}$” was tested. Which normalised inhibition (eCFP-eYFP dual reporter) did it give?
Answer: 82.4%

Question: How did the normalised inhibition (eCFP-eYFP dual reporter) turn out when “RNA1{r(C)p.r(A)p.r(U)p.r(C)p.r(C)p.r(C)p.r(C)p.r(G)p.r(A)p.r(G)p.r(C)p.r(U)p.r(C)p.r(G)p.r(G)p.r(A)p.r(G)p.r(A)p.r(G)p.d(T)p.d(T)}|RNA2{r(C)p.r(U)p.r(C)p.r(U)p.r(C)p.r(C)p.r(G)p.r(A)p.r(G)p.r(C)p.r(U)p.r(C)p.r(G)p.r(G)p.r(G)p.r(G)p.r(A)p.r(U)p.r(G)p.d(A)p.d(T)}$$$RNA1{StrandType:ss}|RNA2{StrandType:as}$” was run?
Answer: 50.9%

Question: For “RNA1{r(C)p.r(C)p.r(A)p.r(C)p.r(A)p.r(A)p.r(C)p.r(C)p.r(A)p.r(G)p.r(U)p.r(C)p.r(G)p.r(G)p.r(A)p.r(G)p.r(C)p.r(U)p.r(C)p.d(T)p.d(T)}|RNA2{r(G)p.r(A)p.r(G)p.r(C)p.r(U)p.r(C)p.r(C)p.r(G)p.r(A)p.r(C)p.r(U)p.r(G)p.r(G)p.r(U)p.r(U)p.r(G)p.r(U)p.r(G)p.r(G)p.d(A)p.d(A)}$$$RNA1{StrandType:ss}|RNA2{StrandType:as}$”, which normalised inhibition (eCFP-eYFP dual reporter) is on record?
Answer: 80.8%

Question: “RNA1{r(C)p.r(C)p.r(A)p.r(C)p.r(C)p.r(G)p.r(G)p.r(A)p.r(G)p.r(C)p.r(U)p.r(G)p.r(G)p.r(A)p.r(G)p.r(A)p.r(A)p.r(C)p.r(A)p.d(T)p.d(T)}|RNA2{r(U)p.r(G)p.r(U)p.r(U)p.r(C)p.r(U)p.r(C)p.r(C)p.r(A)p.r(G)p.r(C)p.r(U)p.r(C)p.r(C)p.r(G)p.r(G)p.r(U)p.r(G)p.r(G)p.d(A)p.d(G)}$$$RNA1{StrandType:ss}|RNA2{StrandType:as}$” was tested. Which normalised inhibition (eCFP-eYFP dual reporter) did it give?
Answer: 86.7%

Question: “RNA1{r(C)p.r(C)p.r(C)p.r(G)p.r(C)p.r(U)p.r(A)p.r(C)p.r(G)p.r(U)p.r(G)p.r(A)p.r(C)p.r(C)p.r(G)p.r(A)p.r(U)p.r(G)p.r(G)p.d(T)p.d(T)}|RNA2{r(C)p.r(C)p.r(A)p.r(U)p.r(C)p.r(G)p.r(G)p.r(U)p.r(C)p.r(A)p.r(C)p.r(G)p.r(U)p.r(A)p.r(G)p.r(C)p.r(G)p.r(G)p.r(G)p.d(T)p.d(G)}$$$RNA1{StrandType:ss}|RNA2{StrandType:as}$” was tested. Which normalised inhibition (eCFP-eYFP dual reporter) did it give?
Answer: 77.6%

Question: Which normalised inhibition (eCFP-eYFP dual reporter) does the source give for “RNA1{r(C)p.r(C)p.r(G)p.r(A)p.r(U)p.r(G)p.r(G)p.r(G)p.r(C)p.r(C)p.r(G)p.r(U)p.r(G)p.r(C)p.r(C)p.r(G)p.r(C)p.r(A)p.r(G)p.d(T)p.d(T)}|RNA2{r(C)p.r(U)p.r(G)p.r(C)p.r(G)p.r(G)p.r(C)p.r(A)p.r(C)p.r(G)p.r(G)p.r(C)p.r(C)p.r(C)p.r(A)p.r(U)p.r(C)p.r(G)p.r(G)p.d(T)p.d(C)}$$$RNA1{StrandType:ss}|RNA2{StrandType:as}$” here?
Answer: 54.3%

Question: How did the normalised inhibition (eCFP-eYFP dual reporter) turn out when “RNA1{r(C)p.r(C)p.r(G)p.r(C)p.r(A)p.r(G)p.r(C)p.r(G)p.r(C)p.r(C)p.r(A)p.r(A)p.r(G)p.r(C)p.r(C)p.r(G)p.r(G)p.r(U)p.r(C)p.d(T)p.d(T)}|RNA2{r(G)p.r(A)p.r(C)p.r(C)p.r(G)p.r(G)p.r(C)p.r(U)p.r(U)p.r(G)p.r(G)p.r(C)p.r(G)p.r(C)p.r(U)p.r(G)p.r(C)p.r(G)p.r(G)p.d(C)p.d(A)}$$$RNA1{StrandType:ss}|RNA2{StrandType:as}$” was run?
Answer: 51.3%

Question: How did the normalised inhibition (eCFP-eYFP dual reporter) turn out when “RNA1{r(C)p.r(C)p.r(G)p.r(C)p.r(G)p.r(A)p.r(G)p.r(C)p.r(U)p.r(G)p.r(C)p.r(A)p.r(C)p.r(U)p.r(U)p.r(C)p.r(A)p.r(C)p.r(C)p.d(T)p.d(T)}|RNA2{r(G)p.r(G)p.r(U)p.r(G)p.r(A)p.r(A)p.r(G)p.r(U)p.r(G)p.r(C)p.r(A)p.r(G)p.r(C)p.r(U)p.r(C)p.r(G)p.r(C)p.r(G)p.r(G)p.d(C)p.d(A)}$$$RNA1{StrandType:ss}|RNA2{StrandType:as}$” was run?
Answer: 66.8%

Question: How did the normalised inhibition (eCFP-eYFP dual reporter) turn out when “RNA1{r(C)p.r(C)p.r(G)p.r(C)p.r(U)p.r(A)p.r(C)p.r(G)p.r(U)p.r(G)p.r(A)p.r(C)p.r(C)p.r(G)p.r(A)p.r(U)p.r(G)p.r(G)p.r(G)p.d(T)p.d(T)}|RNA2{r(C)p.r(C)p.r(C)p.r(A)p.r(U)p.r(C)p.r(G)p.r(G)p.r(U)p.r(C)p.r(A)p.r(C)p.r(G)p.r(U)p.r(A)p.r(G)p.r(C)p.r(G)p.r(G)p.d(G)p.d(T)}$$$RNA1{StrandType:ss}|RNA2{StrandType:as}$” was run?
Answer: 64.7%

Question: Which normalised inhibition (eCFP-eYFP dual reporter) does the source give for “RNA1{r(C)p.r(C)p.r(G)p.r(G)p.r(U)p.r(G)p.r(G)p.r(U)p.r(G)p.r(A)p.r(G)p.r(G)p.r(C)p.r(G)p.r(C)p.r(C)p.r(G)p.r(C)p.r(G)p.d(T)p.d(T)}|RNA2{r(C)p.r(G)p.r(C)p.r(G)p.r(G)p.r(C)p.r(G)p.r(C)p.r(C)p.r(U)p.r(C)p.r(A)p.r(C)p.r(C)p.r(A)p.r(C)p.r(C)p.r(G)p.r(G)p.d(G)p.d(A)}$$$RNA1{StrandType:ss}|RNA2{StrandType:as}$” here?
Answer: 35.8%

Question: For “RNA1{r(C)p.r(C)p.r(G)p.r(U)p.r(G)p.r(C)p.r(C)p.r(G)p.r(C)p.r(A)p.r(G)p.r(C)p.r(G)p.r(C)p.r(C)p.r(A)p.r(A)p.r(G)p.r(C)p.d(T)p.d(T)}|RNA2{r(G)p.r(C)p.r(U)p.r(U)p.r(G)p.r(G)p.r(C)p.r(G)p.r(C)p.r(U)p.r(G)p.r(C)p.r(G)p.r(G)p.r(C)p.r(A)p.r(C)p.r(G)p.r(G)p.d(C)p.d(C)}$$$RNA1{StrandType:ss}|RNA2{StrandType:as}$”, which normalised inhibition (eCFP-eYFP dual reporter) is on record?
Answer: 50.5%

Question: Which normalised inhibition (eCFP-eYFP dual reporter) does the source give for “RNA1{r(C)p.r(C)p.r(G)p.r(U)p.r(G)p.r(U)p.r(A)p.r(G)p.r(U)p.r(G)p.r(G)p.r(A)p.r(G)p.r(G)p.r(G)p.r(C)p.r(C)p.r(A)p.r(G)p.d(T)p.d(T)}|RNA2{r(C)p.r(U)p.r(G)p.r(G)p.r(C)p.r(C)p.r(C)p.r(U)p.r(C)p.r(C)p.r(A)p.r(C)p.r(U)p.r(A)p.r(C)p.r(A)p.r(C)p.r(G)p.r(G)p.d(A)p.d(A)}$$$RNA1{StrandType:ss}|RNA2{StrandType:as}$” here?
Answer: 55.2%

Question: With “RNA1{r(C)p.r(C)p.r(U)p.r(C)p.r(C)p.r(A)p.r(C)p.r(C)p.r(G)p.r(G)p.r(A)p.r(G)p.r(C)p.r(U)p.r(G)p.r(G)p.r(A)p.r(G)p.r(A)p.d(T)p.d(T)}|RNA2{r(U)p.r(C)p.r(U)p.r(C)p.r(C)p.r(A)p.r(G)p.r(C)p.r(U)p.r(C)p.r(C)p.r(G)p.r(G)p.r(U)p.r(G)p.r(G)p.r(A)p.r(G)p.r(G)p.d(C)p.d(T)}$$$RNA1{StrandType:ss}|RNA2{StrandType:as}$” as the substance, how does the normalised inhibition (eCFP-eYFP dual reporter) read?
Answer: 68.8%

Question: “RNA1{r(C)p.r(G)p.r(A)p.r(U)p.r(G)p.r(G)p.r(G)p.r(C)p.r(C)p.r(G)p.r(U)p.r(G)p.r(C)p.r(C)p.r(G)p.r(C)p.r(A)p.r(G)p.r(C)p.d(T)p.d(T)}|RNA2{r(G)p.r(C)p.r(U)p.r(G)p.r(C)p.r(G)p.r(G)p.r(C)p.r(A)p.r(C)p.r(G)p.r(G)p.r(C)p.r(C)p.r(C)p.r(A)p.r(U)p.r(C)p.r(G)p.d(G)p.d(T)}$$$RNA1{StrandType:ss}|RNA2{StrandType:as}$” was tested. Which normalised inhibition (eCFP-eYFP dual reporter) did it give?
Answer: 51%

Question: For “RNA1{r(C)p.r(G)p.r(C)p.r(C)p.r(A)p.r(A)p.r(G)p.r(C)p.r(C)p.r(G)p.r(G)p.r(U)p.r(C)p.r(A)p.r(C)p.r(C)p.r(G)p.r(A)p.r(G)p.d(T)p.d(T)}|RNA2{r(C)p.r(U)p.r(C)p.r(G)p.r(G)p.r(U)p.r(G)p.r(A)p.r(C)p.r(C)p.r(G)p.r(G)p.r(C)p.r(U)p.r(U)p.r(G)p.r(G)p.r(C)p.r(G)p.d(C)p.d(T)}$$$RNA1{StrandType:ss}|RNA2{StrandType:as}$”, which normalised inhibition (eCFP-eYFP dual reporter) is on record?
Answer: 59.1%

Question: With “RNA1{r(C)p.r(G)p.r(C)p.r(C)p.r(U)p.r(G)p.r(C)p.r(U)p.r(G)p.r(C)p.r(C)p.r(C)p.r(A)p.r(A)p.r(C)p.r(G)p.r(C)p.r(C)p.r(A)p.d(T)p.d(T)}|RNA2{r(U)p.r(G)p.r(G)p.r(C)p.r(G)p.r(U)p.r(U)p.r(G)p.r(G)p.r(G)p.r(C)p.r(A)p.r(G)p.r(C)p.r(A)p.r(G)p.r(G)p.r(C)p.r(G)p.d(C)p.d(G)}$$$RNA1{StrandType:ss}|RNA2{StrandType:as}$” as the substance, how does the normalised inhibition (eCFP-eYFP dual reporter) read?
Answer: 64.6%

Question: For “RNA1{r(C)p.r(G)p.r(C)p.r(G)p.r(A)p.r(G)p.r(C)p.r(U)p.r(G)p.r(C)p.r(A)p.r(C)p.r(U)p.r(U)p.r(C)p.r(A)p.r(C)p.r(C)p.r(C)p.d(T)p.d(T)}|RNA2{r(G)p.r(G)p.r(G)p.r(U)p.r(G)p.r(A)p.r(A)p.r(G)p.r(U)p.r(G)p.r(C)p.r(A)p.r(G)p.r(C)p.r(U)p.r(C)p.r(G)p.r(C)p.r(G)p.d(G)p.d(C)}$$$RNA1{StrandType:ss}|RNA2{StrandType:as}$”, which normalised inhibition (eCFP-eYFP dual reporter) is on record?
Answer: 54.8%

Question: “RNA1{r(C)p.r(G)p.r(C)p.r(G)p.r(C)p.r(G)p.r(C)p.r(G)p.r(C)p.r(G)p.r(C)p.r(A)p.r(A)p.r(G)p.r(G)p.r(U)p.r(G)p.r(C)p.r(G)p.d(T)p.d(T)}|RNA2{r(C)p.r(G)p.r(C)p.r(A)p.r(C)p.r(C)p.r(U)p.r(U)p.r(G)p.r(C)p.r(G)p.r(C)p.r(G)p.r(C)p.r(G)p.r(C)p.r(G)p.r(C)p.r(G)p.d(G)p.d(C)}$$$RNA1{StrandType:ss}|RNA2{StrandType:as}$” was tested. Which normalised inhibition (eCFP-eYFP dual reporter) did it give?
Answer: 60.6%

Question: Which normalised inhibition (eCFP-eYFP dual reporter) does the source give for “RNA1{r(C)p.r(G)p.r(G)p.r(C)p.r(G)p.r(C)p.r(G)p.r(C)p.r(C)p.r(U)p.r(G)p.r(C)p.r(U)p.r(G)p.r(C)p.r(C)p.r(C)p.r(A)p.r(A)p.d(T)p.d(T)}|RNA2{r(U)p.r(U)p.r(G)p.r(G)p.r(G)p.r(C)p.r(A)p.r(G)p.r(C)p.r(A)p.r(G)p.r(G)p.r(C)p.r(G)p.r(C)p.r(G)p.r(C)p.r(C)p.r(G)p.d(G)p.d(G)}$$$RNA1{StrandType:ss}|RNA2{StrandType:as}$” here?
Answer: 84.6%
